Assay results from patent US9920075B2, “Triazolopyridine and triazolopyrimidine inhibitors of myeloperoxidase” (BRISTOL-MYERS SQUIBB COMPANY, priority 2014, dated 2018).
Values joined by “and” are separate entries in the source; they are usually repeats but may differ in a detail not shown here. Equal values may be shown once. Read-outs that look alike come from different tables or passages of the source.

Target: T1, myeloperoxidase (MPO) (Homo sapiens, UniProt P05164)
T1 sequence (P05164 49-745): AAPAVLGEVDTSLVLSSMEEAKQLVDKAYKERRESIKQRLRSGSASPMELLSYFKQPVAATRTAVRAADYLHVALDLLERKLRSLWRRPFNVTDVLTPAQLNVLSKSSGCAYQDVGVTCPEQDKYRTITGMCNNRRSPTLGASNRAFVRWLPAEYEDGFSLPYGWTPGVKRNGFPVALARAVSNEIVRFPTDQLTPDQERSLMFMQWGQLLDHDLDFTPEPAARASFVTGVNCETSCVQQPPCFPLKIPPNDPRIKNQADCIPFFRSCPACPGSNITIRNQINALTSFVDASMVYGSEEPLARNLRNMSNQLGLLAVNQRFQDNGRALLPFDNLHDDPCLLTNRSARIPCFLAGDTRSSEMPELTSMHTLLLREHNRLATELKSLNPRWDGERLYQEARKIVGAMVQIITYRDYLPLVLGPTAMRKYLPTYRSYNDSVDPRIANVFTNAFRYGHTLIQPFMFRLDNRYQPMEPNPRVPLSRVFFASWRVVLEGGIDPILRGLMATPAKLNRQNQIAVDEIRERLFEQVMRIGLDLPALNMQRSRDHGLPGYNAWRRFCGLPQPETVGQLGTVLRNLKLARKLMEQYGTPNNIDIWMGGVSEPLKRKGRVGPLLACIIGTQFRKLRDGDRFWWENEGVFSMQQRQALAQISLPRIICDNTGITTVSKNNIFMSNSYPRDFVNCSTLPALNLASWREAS
Experiment: MPO peroxidation assay (Amplex Red assay)
Assay type: biochemical
Details: MPO peroxidation (Amplex Red), ranges given
Experimental: MPO Peroxidation Assay (Amplex Red Assay)
MPO peroxidation activity was measured in 100 mM KPi (pH 7.4) by utilizing the non-fluorescent reagent Amplex Red (Invitrogen Cat. #A12222) which can be oxidized to the highly fluorescent resorufin. Amplex Red is oxidized by the peroxidase action of MPO to resorufin. […] Enzyme and compound were preincubated for ten minutes at room temperature.
After the ten minute preincubation, 25 μL of an Amplex Red mixture containing 200 μM Amplex Red and 10 mM H2O2 was added to the plate.
IC50 values were calculated by determining the slope of the linear portion of the kinetic trace (180-540 secs), and using that calculated slope to determine % inhibition occurring at each concentration of inhibitor using the following equation:
[formula] where A=minimal Y value (activity level of inhibited sample), B=maximal Y value (activity level of uninhibited sample), C=Log IC50, D=Hill Slope, x=concentration of inhibitor. MPO Chlorination Assay (APF Assay)

[1] = read-out: MPO peroxidation assay IC50 values (binned)
[2] = MPO peroxidation assay IC50 values (binned)

IC50 [1]	IC50 [2] [µM]	SMILES
0.06 to 0.15 µM		Cn1nc(COc2cc(N)nc3[nH]nnc23)cc1-c1ccc(CO)nc1 [Example 103, (5-(3-(((5-amino-3H-[1,2,3]triazolo[4,5-b]pyridin-7-yl)oxy)methyl)-1-methyl-1H-pyrazol-5-yl)pyridin-2-yl)methanol]
≤ 0.06 µM		CN1CCN(c2ccc(-c3cnc(COc4cc(N)nc5[nH]nnc45)c(F)c3)cn2)CC1 [Example 107, 7-((5-fluoro-6′-(4-methylpiperazin-1-yl)-[3,3′-bipyridin]-6-yl)methoxy)-3H-[1,2,3] triazolo[4,5-b]pyridin-5-amine]
≤ 0.06 µM		Cn1nc(C2CC2)cc1COc1cc(N)nc2[nH]nnc12 [Example 20, 7-((3-Cyclopropyl-1-methyl-1H-pyrazol-5-yl)methoxy)-3H-[1,2,3]triazolo [4,5-b]pyridin-5-amine]
≤ 0.06 µM		Cc1nn(Cc2cccc(C3CCNCC3)c2)nc1COc1cc(N)nc2[nH]nnc12 [Example 78, 7-((5-Methyl-2-(3-(piperidin-4-yl)benzyl)-2H-1,2,3-triazol-4-yl)methoxy)-3H-[1,2,3]triazolo[4,5-b]pyridin-5-amine]
≤ 0.06 µM		Cn1nc(COc2cc(N)nc3[nH]nnc23)cc1-c1ccccc1 [Example 17, 7-((1-Methyl-5-phenyl-1H-pyrazol-3-yl)methoxy)-3H-[1,2,3]triazolo[4,5-b]pyridin-5-amine]
≤ 0.06 µM		Nc1cc(OCc2ncc(-c3ccc(N4CCNCC4)nc3)cc2F)c2nn[nH]c2n1 [Example 99, 7-((5-fluoro-6′-(piperazin-1-yl)-[3,3′-bipyridin]-6-yl)methoxy)-3H-[1,2,3] triazolo[4,5-b]pyridin-5-amine]
≤ 0.06 µM		Cn1nc(COc2cc(N)nc3[nH]nnc23)cc1-c1ccc(N2CCNCC2)nc1 [Example 104, 7-((1-methyl-5-(6-(piperazin-1-yl)pyridin-3-yl)-1H-pyrazol-3-yl)methoxy)-3H-[1,2,3]triazolo[4,5-b]pyridin-5-amine]
0.15 to 1 µM		Nc1cc(OCc2cn3nc(Cl)ccc3n2)c2nn[nH]c2n1 [Example 40, 7-((6-Chloroimidazo[1,2-b]pyridazin-2-yl)methoxy)-3H-[1,2,3]triazolo[4,5-b]pyridin-5-amine]
0.06 to 0.15 µM		Cc1nn(-c2ccc(N3CCNCC3)cc2)nc1COc1cc(N)nc2[nH]nnc12 [Example 63, 7-((5-Methyl-2-(4-(piperazin-1-yl)phenyl)-2H-1,2,3-triazol-4-yl)methoxy)-3H-[1,2,3]triazolo[4,5-b]pyridin-5-amine]
0.06 to 0.15 µM		Nc1cc(OCc2ccc(Br)cn2)c2nn[nH]c2n1 [Example 92, 7-((5-Bromopyridin-2-yl)methoxy)-3H-[1,2,3]triazolo[4,5-b]pyridin-5-amine]
≤ 0.06 µM		CN1CCN(c2ccc(-c3cc(COc4cc(N)nc5[nH]nnc45)nn3C)cn2)CC1 [Example 105, 7-((1-methyl-5-(6-(4-methylpiperazin-1-yl)pyridin-3-yl)-1H-pyrazol-3-yl)methoxy)-3H-[1,2,3]triazolo[4,5-b]pyridin-5-amine]

Further lines, the compound ahead of its results:

SMILES	IC50 [1]	IC50 [2] [µM]
Cc1nn(C[C@@H]2C[C@H](Oc3ccccc3)CN2)nc1COc1cc(N)nc2[nH]nnc12 [Example 73, 7-((5-Methyl-2-(((2S,4S)-4-phenoxypyrrolidin-2-yl)methyl)-2H-1,2,3-triazol-4-yl)methoxy)-3H-[1,2,3]triazolo[4,5-b]pyridin-5-amine]	≤ 0.06 µM	
Nc1cc(OCc2nc(Br)ccc2F)c2nn[nH]c2n1 [Example 95, 7-((6-Bromo-3-fluoropyridin-2-yl)methoxy)-3H-[1,2,3]triazolo[4,5-b]pyridin-5-amine]	≤ 0.06 µM	
Nc1cc(OCc2cnccc2Cl)c2nn[nH]c2n1 [Example 91, 7-((4-Chloropyridin-3-yl)methoxy)-3H-[1,2,3]triazolo[4,5-b]pyridin-5-amine]	0.06 to 0.15 µM	
COc1ncc(Br)cc1COc1cc(N)nc2[nH]nnc12 [Example 81, 7-((5-Bromo-2-methoxypyridin-3-yl)methoxy)-3H-[1,2,3]triazolo[4,5-b]pyridin-5-amine]	≤ 0.06 µM	
Cc1nn(Cc2c[nH]cn2)nc1COc1cc(N)nc2[nH]nnc12 [Example 71, 7-((2-((1H-Imidazol-4-yl)methyl)-5-methyl-2H-1,2,3-triazol-4-yl)methoxy)-3H-[1,2,3]triazolo[4,5-b]pyridin-5-amine]	0.06 to 0.15 µM and 0.15 to 1 µM	
Nc1cc(OCc2ncccc2F)c2nn[nH]c2n1 [Example 89, 7-((3-Fluoropyridin-2-yl)methoxy)-3H-[1,2,3]triazolo[4,5-b]pyridin-5-amine]	≤ 0.06 µM	
Nc1nc(OCc2ccc3ncccc3c2)c2nn[nH]c2n1 [Example 115, 7-(quinolin-6-ylmethoxy)-3H-[1,2,3] triazolo[4,5-d]pyrimidin-5-amine]	0.06 to 0.15 µM	
Cc1nn(-c2ccccc2)nc1COc1cc(N)nc2[nH]nnc12 [Example 21, 7-((5-Methyl-2-phenyl-2H-1,2,3-triazol-4-yl)methoxy)-3H-[1,2,3]triazolo [4,5-b]pyridin-5-amine]		≤ 0.06
Nc1cc(OCc2cccc3cccnc23)c2nn[nH]c2n1 [Example 7, 7-(Quinolin-8-ylmethoxy)-3H-[1,2,3]triazolo[4,5-b]pyridin-5-amine]	≤ 0.06 µM	
Nc1cc(OCc2nn(-c3cccc(Cl)c3)c3c2CCNC3=O)c2nn[nH]c2n1 [Example 51, 3-(((5-Amino-3H-[1,2,3]triazolo[4,5-b]pyridin-7-yl)oxy)methyl)-1-(3-chlorophenyl)-5,6-dihydro-1H-pyrazolo[3,4-c]pyridin-7(4H)-one]	0.06 to 0.15 µM	
Nc1cc(OCc2nc(-c3ccccc3)no2)c2nn[nH]c2n1 [Example 24, 7-((3-Phenyl-1,2,4-oxadiazol-5-yl)methoxy)-3H-[1,2,3]triazolo[4,5-b]pyridin-5-amine]	0.06 to 0.15 µM	
Nc1nc(OCc2csc(-c3cccc(Cl)c3Cl)n2)c2nn[nH]c2n1 [Example 124, 7-((2-(2,3-dichlorophenyl)thiazol-4-yl)methoxy)-3H-[1,2,3]triazolo[4,5-d] pyrimidin-5-amine]	0.06 to 0.15 µM and 0.15 to 1 µM	
N#Cc1nn(-c2ccccc2)nc1COc1cc(N)nc2[nH]nnc12 [Example 65, 5-(((5-Amino-3H-[1,2,3]triazolo[4,5-b]pyridin-7-yl)oxy)methyl)-2-phenyl-2H-1,2,3-triazole-4-carbonitrile]	≤ 0.06 µM	
Cc1oc(-c2ccc(Cl)cc2Cl)nc1COc1cc(N)nc2[nH]nnc12 [Example 39, 7-((2-(2,4-Dichlorophenyl)-5-methyloxazol-4-yl)methoxy)-3H-[1,2,3]triazolo[4,5-b]pyridin-5-amine]	≤ 0.06 µM	
Nc1cc(OCC2CCN(c3ncccn3)CC2)c2nn[nH]c2n1 [Example 84, 7-((1-(Pyrimidin-2-yl)piperidin-4-yl)methoxy)-3H-[1,2,3]triazolo[4,5-b]pyridin-5-amine]	0.06 to 0.15 µM	
Nc1cc(OCc2ncc(-c3ccccc3)o2)c2nn[nH]c2n1 [Example 25, 7-((5-Phenyloxazol-2-yl)methoxy)-3H-[1,2,3]triazolo[4,5-b]pyridin-5-amine]		0.06 to 0.15
Nc1nc(OCc2cccc3ncccc23)c2nn[nH]c2n1 [Example 116, 7-(quinolin-5-ylmethoxy)-3H-[1,2,3] triazolo[4,5-d]pyrimidin-5-amine]	0.06 to 0.15 µM	
Nc1cc(OCc2cccc3c2nnn3Cc2ccccc2)c2nn[nH]c2n1 [Example 38, 7-((1-Benzyl-1H-benzo[d][1,2,3]triazol-4-yl)methoxy)-3H-[1,2,3]triazolo [4,5-b]pyridin-5-amine]	0.06 to 0.15 µM and 0.15 to 1 µM	
Nc1nc(OCc2cccnc2)c2nn[nH]c2n1 [Example 113, 7-(pyridin-3-ylmethoxy)-3H-[1,2,3] triazolo[4,5-d]pyrimidin-5-amine]	0.06 to 0.15 µM	
Cc1nn(-c2ccc(F)cc2)nc1COc1cc(N)nc2[nH]nnc12 [Example 10, 7-((2-(4-Fluorophenyl)-5-methyl-2H-1,2,3-triazol-4-yl)methoxy)-3H-[1,2,3]triazolo[4,5-b]pyridin-5-amine]	≤ 0.06 µM	
Nc1cc(OCc2csc(-c3ccccc3)n2)c2nn[nH]c2n1 [Example 42, 7-((2-Phenylthiazol-4-yl)methoxy)-3H-[1,2,3]triazolo[4,5-b]pyridin-5-amine]	0.06 to 0.15 µM	
Nc1nc(OCc2cccc3occc23)c2nn[nH]c2n1 [Example 112, 7-(Benzofuran-4-ylmethoxy)-3H-[1,2,3]triazolo[4,5-d]pyrimidin-5-amine]	0.06 to 0.15 µM	
Nc1cc(OCc2cccc(C(F)(F)F)n2)c2nn[nH]c2n1 [Example 16, 7-((6-(Trifluoromethyl)pyridin-2-yl)methoxy)-3H-[1,2,3]triazolo[4,5-b]pyridin-5-amine]	≤ 0.06 µM	
